Measured values taken from publication PMC4877007, “A Minimal Threshold of c-di-GMP Is Essential for Fruiting Body Formation and Sporulation in Myxococcus xanthus” (PLoS Genetics, 2016).

What was measured:
DmxB = biological target: T1, DmxB (Myxococcus xanthus, UniProt Q1D603, R210A); assay: TLC of [α-32P]-GTP products (diguanylate cyclase assay); type: biochemical; conditions: labelled compound; I-site mutant; 1 mM GTP, 10 μM protein, 10 mM MgCl2, 300 mM NaCl, pH 8.0, 30°C
T1 construct: gene MXAN_3735; full-length, DmxB-His6 from pET24b(+) (pDJS30), made in E. coli Rosetta 2(DE3), Ni-NTA; N-terminal receiver, C-terminal GGDEF

EpsI/Nla24 = biological target: T2, EpsI/Nla24 (Myxococcus xanthus, UniProt Q1CVM8); assay: SPR (Biacore T200), steady-state affinity fit; type: binding; conditions: labelled compound: biotinylated c-di-GMP immobilised on streptavidin chip, protein as analyte; paper states KD as that of c-di-GMP; 10 mM HEPES, 150 mM NaCl, 2 mM MgCl2, pH 6.8, 25°C
T2 construct: calculated 50 kDa; receiver, AAA+ and HTH domains
T2 sequence (Q1CVM8 entry or part of it): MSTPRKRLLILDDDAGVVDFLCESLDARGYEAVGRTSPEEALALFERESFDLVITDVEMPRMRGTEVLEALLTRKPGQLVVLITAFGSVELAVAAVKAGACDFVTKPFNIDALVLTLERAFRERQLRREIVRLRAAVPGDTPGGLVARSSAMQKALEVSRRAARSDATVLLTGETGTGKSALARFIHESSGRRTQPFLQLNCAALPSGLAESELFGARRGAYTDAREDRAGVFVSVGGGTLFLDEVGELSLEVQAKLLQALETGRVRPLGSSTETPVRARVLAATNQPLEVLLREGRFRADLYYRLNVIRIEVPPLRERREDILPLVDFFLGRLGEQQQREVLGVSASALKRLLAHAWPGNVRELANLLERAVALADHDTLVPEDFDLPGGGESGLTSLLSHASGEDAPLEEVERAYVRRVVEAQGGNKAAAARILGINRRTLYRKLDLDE

T1 sequence (Q1D603 entry or part of it R210A): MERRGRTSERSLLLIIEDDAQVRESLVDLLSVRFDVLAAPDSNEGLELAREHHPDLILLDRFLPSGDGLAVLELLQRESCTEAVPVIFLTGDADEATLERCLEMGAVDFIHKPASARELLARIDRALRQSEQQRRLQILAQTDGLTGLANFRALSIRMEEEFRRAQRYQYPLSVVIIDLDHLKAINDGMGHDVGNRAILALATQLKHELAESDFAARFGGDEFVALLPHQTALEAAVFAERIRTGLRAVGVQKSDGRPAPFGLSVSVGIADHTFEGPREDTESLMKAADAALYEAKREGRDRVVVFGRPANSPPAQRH

Row | Molecule | TLC of [α-32P]-GTP products (diguanylate cyclase assay) (DmxB) | Kd (EpsI/Nla24) [nM]
1 | Nc1nc2c(ncn2[C@@H]2O[C@H](COP(=O)(O)OP(=O)(O)OP(=O)(O)O)[C@@H](O)[C@H]2O)c(=O)[nH]1 [GTP] | the I-site mutant had slightly increased DGC activity in vitro in comparison to the WT | –
2 | biotinylated c-di-GMP | – | 530 ± 60
